Measured values taken from patent publication US9937115B2, “Oral care compositions with improved flavor” (priority 2010, dated 2018).
Like-named read-outs stand apart in the source and are kept apart here.

Biological target: T1, TRPA1 receptor (Homo sapiens, UniProt O75762)
T1 construct: expressed in transfected cells; host or cells: HEK cell line
Test: cell-based
Parameters: activation: dose or concentration left out as unconfirmed
Experimental: The term “TRPA1 activator” as used herein refers to any component which at a concentration of 1 mM gives a calcium flux count of at least 1000 counts above the background level of calcium present in the cell according to the FLIPR method as discussed herein. The term “count” is defined as the change in fluorescence of the transfected cell lines due to the influx of calcium across the cell membrane, which reacts with the calcium sensitive dye present within the cells.
In order to select TRPA1 agonists that would be preferred for reducing off-tasting chemical components found in oral care compositions, calcium flux receptor activity on the TRPA1 was utilized as the criteria for selection of actives. With allyl isothiocyanate as the TRPA1 positive control, molecules that directly activated the TRPA1 receptor were screened in dimethylsulfoxide (DMSO). Pure molecules of each material were dissolved in DMSO at a concentration of 100 micormolar and then added to an HEK cell line containing the TRPA1 receptor. If they are TRPA1 agonists, they will cause a calcium flux in the cell which fluoresces and may then be measured using a FLIPR machine.

[1] = HEK293, percentage of the control (allyl isothiocyanate) calcium count, material dissolved in DMSO at 100 micromolar, HEK cells with TRPA1, direct addition, read-out: TRPA1 Direct addition
[2] = HEK293, percentage of the control (allyl isothiocyanate) calcium count, material dissolved in DMSO at 100 micromolar, HEK cells with TRPA1, pre-incubation, read-out: TRPA1 Pre-incubation
[3] = HEK293, read-out: TRPA1 Direct addition
[4] = HEK293, read-out: TRPA1 Pre-incubation
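For TRPA1 Pre-incubation in this document: values above 100 mean more active than the control.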

T1 sequence (O75762 whole entry): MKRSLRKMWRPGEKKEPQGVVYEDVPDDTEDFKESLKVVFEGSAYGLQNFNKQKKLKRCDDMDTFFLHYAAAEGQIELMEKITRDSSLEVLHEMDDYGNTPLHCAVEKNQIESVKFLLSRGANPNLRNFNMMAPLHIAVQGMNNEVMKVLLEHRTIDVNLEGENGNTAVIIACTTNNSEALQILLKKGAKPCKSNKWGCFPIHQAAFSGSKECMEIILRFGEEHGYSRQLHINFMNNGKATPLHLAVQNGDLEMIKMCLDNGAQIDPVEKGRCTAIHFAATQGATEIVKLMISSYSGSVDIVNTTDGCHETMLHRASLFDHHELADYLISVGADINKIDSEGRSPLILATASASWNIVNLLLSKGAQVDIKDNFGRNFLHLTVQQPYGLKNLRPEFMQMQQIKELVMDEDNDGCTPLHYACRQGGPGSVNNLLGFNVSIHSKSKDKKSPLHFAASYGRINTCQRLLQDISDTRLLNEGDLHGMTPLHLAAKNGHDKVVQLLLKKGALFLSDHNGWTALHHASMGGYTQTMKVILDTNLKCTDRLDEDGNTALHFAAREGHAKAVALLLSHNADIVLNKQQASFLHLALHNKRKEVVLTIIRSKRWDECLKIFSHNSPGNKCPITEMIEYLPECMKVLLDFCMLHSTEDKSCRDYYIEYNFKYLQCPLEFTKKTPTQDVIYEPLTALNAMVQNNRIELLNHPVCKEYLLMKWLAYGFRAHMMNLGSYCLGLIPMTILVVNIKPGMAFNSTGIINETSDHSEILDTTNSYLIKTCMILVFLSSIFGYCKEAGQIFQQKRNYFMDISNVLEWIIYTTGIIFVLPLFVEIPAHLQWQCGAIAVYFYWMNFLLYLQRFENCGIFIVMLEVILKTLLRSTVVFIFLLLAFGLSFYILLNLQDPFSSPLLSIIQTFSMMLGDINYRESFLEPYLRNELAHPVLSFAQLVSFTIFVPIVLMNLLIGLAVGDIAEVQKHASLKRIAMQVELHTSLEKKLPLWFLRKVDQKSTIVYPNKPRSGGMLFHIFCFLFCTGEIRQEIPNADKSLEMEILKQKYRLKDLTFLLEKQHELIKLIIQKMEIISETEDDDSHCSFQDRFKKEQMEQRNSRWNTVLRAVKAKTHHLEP

Compound | activation at 100 µM [1] | activation [2] | also measured
CC1=CCC(=C(C)C)CC1 [Terpinolene] | -17.2% | 76.2% | –
C=CCOC(=O)CCC [Allyl Butyrate] | 0.02% | 98% | –
CCCCCC(=Cc1ccccc1)C(OC)OC [Alpha-Amylcinnamaldehyde Dimethyl acetal] | -2.4% | -0.12% | –
CCCC(=O)OCc1ccccc1 [Benzyl Butyrate] | -3.01% | 58.7% | –
CC/C=C/C=C/C=O [Trans,trans-2,4-Heptadienal] | 119% | -3.68% | –
CC1=CCC(C(C)(C)O)CC1 (stereo not drawn) [Alpha-Terpineol] | 15.8% | 60.5% | –
CCC(C)C(=O)OCCC(C)C (stereo not drawn) [3-Methylbutyl-2-Methylbutanoate] | -1.18% | 71.4% | –
CC(=O)OC1CC(C)CCC1C(C)C (stereo not drawn) [Menthyl Acetate] | -7.24% | 75.8% | –
CC(=O)OC(C)c1ccccc1 (stereo not drawn) [Alpha-Methylbenzyl Acetate] | 1.45% | 70.8% | –
O=C1NS(=O)(=O)c2ccccc21.[Na] [Saccharin Sodium] | – | – | activation [3]: -12.4%; activation [4]: 62.5%
C=CCOC(=O)CCC1CCCCC1 [Allyl Cyclohexanepropionate] | 0.45% | 81.7% | –
CC(=O)OC1CC2CCC1(C)C2(C)C (stereo not drawn) [Bornyl Acetate] | -0.6% | 51.2% | –
CC(O)C(=O)[O-].CC(O)C(=O)[O-].[Mg+2] (stereo not drawn) [Magnesium Lactate] | – | – | TRPA1 Direct addition: −4.49%; TRPA1 Pre-incubation: 58.12%
CCCCOC(=O)[C@H](C)O [Butyl L-Lactate] | -0.66% | – | activation at 100 µM [2]: 67.3%
CCCCCOC(=O)c1ccco1 [Amyl 2-Furoate] | -2.39% | 74.1% | –
CC(C)=CCCC(C)CCOCC=O (stereo not drawn) [Citronellyl Oxyacetaldehyde] | 148% | -1.16% | –
O=C(OCCc1ccccc1)c1ccccc1O [Phenethyl salicylate] | 7.36% | 110% | –
CC/C=C\CCOC(=O)CCC [cis-3-Hexenyl Butyrate] | -0.46% | 87.9% | –
CC(C)C(=O)OCc1ccccc1 [Benzyl Isobutyrate] | -2.7% | 65% | –
CC1=CCC2CC1C2(C)C (stereo not drawn) [Alpha-Pinene] | -3.07% | 86.6% | –
O=C1CCCCCCCCCCCC(=O)OCCO1 [Ethylene Brassylate] | -0.58% | 37.2% | –
CCc1ncc(C)nc1CC [2,3-Diethyl-5-Methylpyrazine] | 0.99% | 76.9% | –
O=S(=O)([O-])NC1CCCCC1.[Na+] [Sodium Cyclamate] | – | – | TRPA1 Direct addition: −4.07%; TRPA1 Pre-incubation: 48.66%
CCCCCC(=O)OCC [Ethyl Hexanoate] | 0.41% | 92.3% | –
CC(=O)OCc1ccc2c(c1)OCO2 [Piperonyl Acetate] | – | – | activation at 100 µM [3]: -0.28%; activation at 100 µM [4]: 102%
CCC1OC(=O)C(O)=C1C (stereo not drawn) [5-Ethyl-3-Hydroxy-4-Methyl-2(5H)-Furanone] | 1.79% | 72.5% | –
CCCCCCCCC=O [Nonanal] | -14% | 51.4% | –
C=CCOC(=O)CCCCCCCC [Allyl Nonanoate] | -1.87% | 69.6% | –
CC/C=C\CCOC(=O)C/C=C\CC [cis-3-Hexenyl cis-3-Hexenoate, [(Z)-hex-3-enyl] (Z)-hex-3-enoate] | -1.04% | 122% | –
CC/C=C\CCCCCO [cis-6-Nonen-1-ol] | 2.38% | 98% | –
